Data from patent US20140112886A1, “DINUCLEOTIDE COMPOUNDS FOR HCV INFECTION” (IDENIX PHARMACEUTICALS, INC., priority 2012, published 2014).

Experiments:
[1] = Cytotoxicity evaluation, CellTiter-Blue Cell Viability Assay; settings: human, Zluc cells (HCV replicon cells)
HCV genotype 1b replicon = assay: microbe, parasite or virus in culture; type: cell-based; settings: Hepatitis C virus, 72 h, read-out: HCV Replicon EC50
in vitro = settings: human

| SMILES | CC50 at 72 h [1] [µM] | EC50 (HCV genotype 1b replicon) [µM] | CC50 (in vitro) [µM] |
| --- | --- | --- | --- |
| CCOc1nc(N)nc2c1ncn2[C@@H]1O[C@@H]2COP(=O)(NCCNP3(=O)OC[C@H]4O[C@@H](n5cnc6c(OCC)nc(N)nc65)[C@](C)(F)[C@@H]4O3)O[C@H]2[C@@]1(C)F (mixture of isomers) [Compound 3] | > 50 | 1 to 10 |  |
| CCOc1nc(N)nc2c1ncn2[C@@H]1O[C@H](COP(=O)(Oc2ccccc2)N2CCN(P(=O)(OC[C@H]3O[C@@H](n4cnc5c(OC)nc(N)nc54)[C@](C)(O)[C@@H]3O)Oc3ccccc3)CC2)[C@@H](O)[C@@]1(C)F (stereo partly shown) [Compound 4] |  | > 10 | > 50 |
| CCOc1nc(N)nc2c1ncn2[C@@H]1O[C@H](COP(=O)(NCCNP(=O)(OC[C@H]2O[C@@H](n3cnc4c(OC)nc(N)nc43)[C@](C)(O)[C@@H]2O)Oc2ccccc2)Oc2ccccc2)[C@@H](O)[C@@]1(C)F (stereo partly shown) [Compound 5] |  | > 10 | > 50 |
| COc1nc(N)nc2c1ncn2[C@@H]1O[C@H](COP(=O)(NCCNP(=O)(OC[C@H]2O[C@@H](n3cnc4c(OC)nc(N)nc43)[C@](C)(O)[C@@H]2O)Oc2ccccc2)Oc2ccccc2)[C@@H](O)[C@@]1(C)O (stereo partly shown) [Compound 6] |  | > 10 | > 50 |
| CCOc1nc(N)nc2c1ncn2[C@@H]1OC(COP2(=O)OCC3(CO2)COP(=O)(OCC2O[C@@H](n4cnc5c(OCC)nc(N)nc54)[C@](C)(F)[C@@H]2O)OC3)[C@@H](O)[C@@]1(C)F (stereo partly shown) [Compound 7] |  | > 10 | > 50 |
| CCOc1nc(N)nc2c1ncn2[C@@H]1O[C@@H]2COP(=O)(Oc3cccc(OP4(=O)OC[C@H]5O[C@@H](n6ccc(=O)[nH]c6=O)[C@](C)(F)[C@@H]5O4)c3)O[C@H]2[C@@]1(C)F (stereo partly shown) [Compound 8] |  | < 0.25 | > 50 |
| CCOc1nc(N)nc2c1ncn2[C@@H]1O[C@@H]2COP(=O)(Oc3cccc(OP4(=O)OC[C@H]5O[C@@H](n6cnc7c(OCC)nc(N)nc76)[C@](C)(F)[C@@H]5O4)c3)O[C@H]2[C@@]1(C)O (stereo partly shown) [Compound 9] |  | < 0.25 | > 50 |
| CCOc1nc(N)nc2c1ncn2[C@@H]1O[C@@H]2COP(=O)(Oc3cccc(OP4(=O)OC[C@H]5O[C@@H](n6ccc(OC)nc6=O)[C@](C)(F)[C@@H]5O4)c3)O[C@H]2[C@@]1(C)F (stereo partly shown) [Compound 10] |  | < 0.25 | > 50 |
| CCOc1nc(N)nc2c1ncn2[C@@H]1O[C@@H]2COP(=O)(Oc3cccc(OP4(=O)OC[C@H]5O[C@@H](n6cnc7c(OCC)nc(N)nc76)[C@](C)(O)[C@@H]5O4)c3)O[C@H]2[C@@]1(C)O (stereo partly shown) [Compound 12] |  | 0.25 to 1 | > 50 |
| CCOc1nc(N)nc2c1ncn2[C@@H]1O[C@@H]2COP(=O)(OC3CCC(OP4(=O)OC[C@H]5O[C@@H](n6cnc7c(OCC)nc(N)nc76)[C@](C)(F)[C@@H]5O4)CC3)O[C@H]2[C@@]1(C)F (stereo partly shown) [Compound 13] |  | 1 to 10 | > 50 |
| CCOc1nc(N)nc2c1ncn2[C@@H]1O[C@@H]2COP(=O)(NCCCCCCNP3(=O)OC[C@H]4O[C@@H](n5cnc6c(OCC)nc(N)nc65)[C@](C)(F)[C@@H]4O3)O[C@H]2[C@@]1(C)F (stereo partly shown) [Compound 14] | > 50 | 1 to 10 |  |
